ChEMBL document CHEMBL4842379 (J Med Chem, 2021)
Active and inactive are the calls of the source. The calls are words filed in the database; no cut-off is given here.

How the values were obtained:
[1] = Reversal of resistance to paclitaxel-induced cytotoxicity in paclitaxel-resistant human SW-620/AD300 cells assessed as reduction in paclitaxel IC50 at 2 uM pre-incubated for 4 hrs followed by paclitaxel addition and measured after 72 hrs by MTT assay; type: functional, cell-based
[2] = tested on: SW-620; assay: Effect on intracellular Rhodamine 123 accumulation in human SW620 cells at 0.5 to 2 uM incubated for 24 hrs by flow cytometry; type: functional, cell-based; conditions: dose 0.5-2 µM
[3] = molecular target: T1, ATP-dependent translocase ABCB1 (Homo sapiens, UniProt P08183); assay: Inhibition of P-gp in paclitaxel-resistant human SW620/AD300 cells assessed as accumulation of paclitaxel incubated for 24 hrs by HPLC analysis; type: cell-based; conditions: sw-620, 24 h
T1 sequence (P08183 whole entry): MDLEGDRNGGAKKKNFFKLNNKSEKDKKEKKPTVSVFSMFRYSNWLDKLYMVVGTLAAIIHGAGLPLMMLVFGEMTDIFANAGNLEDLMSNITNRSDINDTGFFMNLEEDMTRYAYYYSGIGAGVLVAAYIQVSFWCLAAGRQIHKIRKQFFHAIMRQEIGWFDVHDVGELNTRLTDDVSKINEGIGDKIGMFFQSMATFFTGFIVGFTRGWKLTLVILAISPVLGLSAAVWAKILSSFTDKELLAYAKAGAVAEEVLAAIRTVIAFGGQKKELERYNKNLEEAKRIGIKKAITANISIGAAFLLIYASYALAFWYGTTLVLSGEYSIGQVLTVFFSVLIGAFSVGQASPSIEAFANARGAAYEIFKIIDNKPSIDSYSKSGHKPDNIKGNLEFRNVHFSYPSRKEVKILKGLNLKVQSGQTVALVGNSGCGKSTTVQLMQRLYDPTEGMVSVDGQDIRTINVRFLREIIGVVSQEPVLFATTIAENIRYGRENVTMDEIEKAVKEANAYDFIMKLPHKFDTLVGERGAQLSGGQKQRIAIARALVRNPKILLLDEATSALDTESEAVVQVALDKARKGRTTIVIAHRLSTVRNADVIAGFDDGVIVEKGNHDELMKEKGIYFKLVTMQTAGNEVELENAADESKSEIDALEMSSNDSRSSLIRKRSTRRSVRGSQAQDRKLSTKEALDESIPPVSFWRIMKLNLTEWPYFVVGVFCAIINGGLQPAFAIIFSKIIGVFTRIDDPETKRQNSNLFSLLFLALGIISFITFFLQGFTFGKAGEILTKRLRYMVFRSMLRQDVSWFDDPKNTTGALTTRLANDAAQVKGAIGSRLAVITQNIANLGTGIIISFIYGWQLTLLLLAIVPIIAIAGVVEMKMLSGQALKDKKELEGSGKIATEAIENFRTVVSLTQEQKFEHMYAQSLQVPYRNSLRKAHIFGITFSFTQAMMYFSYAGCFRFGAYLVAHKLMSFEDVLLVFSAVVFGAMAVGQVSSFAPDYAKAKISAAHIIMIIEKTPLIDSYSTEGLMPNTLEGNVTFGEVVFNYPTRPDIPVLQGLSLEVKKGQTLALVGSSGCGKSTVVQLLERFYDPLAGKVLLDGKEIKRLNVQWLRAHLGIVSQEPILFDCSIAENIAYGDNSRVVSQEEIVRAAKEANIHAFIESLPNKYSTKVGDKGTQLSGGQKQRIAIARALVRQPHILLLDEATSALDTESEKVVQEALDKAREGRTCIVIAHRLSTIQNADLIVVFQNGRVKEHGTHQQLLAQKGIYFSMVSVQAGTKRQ

[4] = Reversal of resistance to colchicine-induced cytotoxicity in human SW620/AD300 cells assessed as reduction in colchicine IC50 at 2 uM pre-incubated for 4 hrs followed by colchicine addition and measured after 72 hrs by MTT assay; type: functional, cell-based; conditions: SW-620
[5] = tested on: HEK-293T; assay: Cytotoxicity against human HEK293T cells expressing ABCB1 (unknown origin) measured after 72 hrs by MTT assay; type: functional, cell-based
[6] = Cytotoxicity against paclitaxel-resistant human SW620/AD300 cells measured after 72 hrs by MTT assay; type: functional, cell-based; conditions: SW-620, 72 h
[7] = molecular target: Epidermal growth factor receptor (Homo sapiens, UniProt P00533, L858R); assay: Inhibition of EGFR L858R mutant (unknown origin)
Sequence of Epidermal growth factor receptor (P00533 25-1210 L858R limits assumed): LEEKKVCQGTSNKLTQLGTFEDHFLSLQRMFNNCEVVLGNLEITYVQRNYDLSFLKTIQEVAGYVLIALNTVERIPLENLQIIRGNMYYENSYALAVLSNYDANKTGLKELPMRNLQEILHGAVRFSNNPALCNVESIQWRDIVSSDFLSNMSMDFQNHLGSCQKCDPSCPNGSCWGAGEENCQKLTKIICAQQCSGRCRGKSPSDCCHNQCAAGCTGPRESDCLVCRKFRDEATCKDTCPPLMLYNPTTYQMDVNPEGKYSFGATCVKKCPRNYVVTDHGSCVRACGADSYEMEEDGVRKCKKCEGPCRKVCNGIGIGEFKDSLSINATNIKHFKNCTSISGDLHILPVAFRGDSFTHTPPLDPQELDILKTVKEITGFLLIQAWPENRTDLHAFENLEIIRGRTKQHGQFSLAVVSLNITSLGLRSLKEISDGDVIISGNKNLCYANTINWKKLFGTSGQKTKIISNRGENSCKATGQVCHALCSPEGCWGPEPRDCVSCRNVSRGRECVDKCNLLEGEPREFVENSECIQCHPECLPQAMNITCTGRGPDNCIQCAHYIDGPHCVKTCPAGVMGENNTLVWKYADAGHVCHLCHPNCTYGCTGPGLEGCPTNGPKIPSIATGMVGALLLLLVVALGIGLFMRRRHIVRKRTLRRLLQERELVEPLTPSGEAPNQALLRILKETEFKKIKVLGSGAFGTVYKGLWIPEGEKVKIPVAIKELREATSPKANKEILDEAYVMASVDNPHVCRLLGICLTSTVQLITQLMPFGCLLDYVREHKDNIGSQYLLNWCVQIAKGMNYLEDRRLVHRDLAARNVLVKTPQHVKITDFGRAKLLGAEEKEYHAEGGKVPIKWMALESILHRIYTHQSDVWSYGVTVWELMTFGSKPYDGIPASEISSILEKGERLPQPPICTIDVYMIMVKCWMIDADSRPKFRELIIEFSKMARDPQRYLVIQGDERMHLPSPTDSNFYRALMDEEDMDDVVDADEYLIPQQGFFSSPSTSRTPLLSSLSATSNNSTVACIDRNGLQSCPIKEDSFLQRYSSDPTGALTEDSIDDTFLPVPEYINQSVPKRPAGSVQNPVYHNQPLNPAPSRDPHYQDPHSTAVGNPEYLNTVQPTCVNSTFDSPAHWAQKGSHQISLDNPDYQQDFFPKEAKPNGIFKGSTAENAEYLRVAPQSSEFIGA

[8] = Toxicity in mouse xenografted with paclitaxel-resistant human SW620/AD300 cells assessed as change in body weight at 20 mg/kg, po in presence of 5 mg/kg paclitaxel treated for 3 days measured for 19 days; type: organism-based; conditions: in vivo, 456 h, time 19 day
[9] = Toxicity in mouse xenografted with paclitaxel-resistant human SW620/AD300 cells assessed as change in body weight at 20 mg/kg, po measured for 19 days; type: organism-based; conditions: in vivo, 456 h, time 19 day
[10] = molecular target: Cytochrome P450 3A4 (Homo sapiens, UniProt P08684); assay: Inhibition of human recombinant CYP3A4 by fluorescence assay; type: ADME
Sequence of Cytochrome P450 3A4 (P08684 whole entry): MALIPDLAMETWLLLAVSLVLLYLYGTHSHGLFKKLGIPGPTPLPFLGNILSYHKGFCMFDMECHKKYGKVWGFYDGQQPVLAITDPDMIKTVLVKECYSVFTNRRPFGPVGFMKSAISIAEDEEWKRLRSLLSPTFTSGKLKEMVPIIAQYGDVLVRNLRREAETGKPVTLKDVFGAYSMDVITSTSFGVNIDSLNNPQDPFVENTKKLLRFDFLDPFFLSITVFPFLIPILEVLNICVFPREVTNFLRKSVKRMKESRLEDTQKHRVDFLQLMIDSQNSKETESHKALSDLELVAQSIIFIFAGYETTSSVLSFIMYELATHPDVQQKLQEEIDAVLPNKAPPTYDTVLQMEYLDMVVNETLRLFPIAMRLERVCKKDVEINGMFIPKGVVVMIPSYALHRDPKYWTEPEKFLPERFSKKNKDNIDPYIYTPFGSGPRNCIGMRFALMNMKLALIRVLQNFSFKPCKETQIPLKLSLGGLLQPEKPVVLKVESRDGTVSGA

[11] = molecular target: T1, ATP-dependent translocase ABCB1; assay: Inhibition of P-gp in paclitaxel-resistant human SW620/AD300 cells assessed as rescue of intracellular Rhodamine 123 accumulation incubated for 24 hrs by flow cytometry; type: cell-based; conditions: sw-620, 24 h, dose 0.5-2 µM
[12] = tested on: SW-620; assay: In vivo antitumor activity against paclitaxel-resistant human SW620/AD300 cells xenografted in mouse assessed as reduction in tumor volume at 20 mg/kg, po in presence of 5 mg/kg paclitaxel treated for 3 days measured for 19 days; type: functional, organism-based; conditions: time 19.0 day
[13] = molecular target: T1, ATP-dependent translocase ABCB1; assay: Stabilization of P-gp in paclitaxel-resistant human SW620/AD300 cells at higher temperature incubated for 30 mins by Western blot based cellular thermal shift assay; type: cell-based; conditions: sw-620, 0.5 h
[14] = Reversal of resistance to paclitaxel-induced cytotoxicity in human SW620/AD300 cells assessed as reduction in paclitaxel IC50 at 0.5 uM pre-incubated for 4 hrs followed by paclitaxel addition and measured after 72 hrs by MTT assay; type: functional, cell-based; conditions: SW-620
[15] = molecular target: T1, ATP-dependent translocase ABCB1; assay: Inhibition of recombinant human P-gp ATPase activity incubated for 60 mins by luminescence based Glo assay
[16] = Reversal of resistance to colchicine-induced cytotoxicity in human SW620/AD300 cells assessed as reduction in colchicine IC50 at 0.5 uM pre-incubated for 4 hrs followed by colchicine addition and measured after 72 hrs by MTT assay; type: functional, cell-based; conditions: SW-620
[17] = tested on: SW-620; assay: Effect on P-gp subcellular localization in paclitaxel-resistant human SW620/AD300 cells measured after 72 hrs by Hoechst 33258 staining based immunocytochemistry analysis; type: functional, cell-based
[18] = Reversal of resistance to colchicine-induced cytotoxicity in human SW620/AD300 cells assessed as reduction in colchicine IC50 at 1 uM pre-incubated for 4 hrs followed by colchicine addition and measured after 72 hrs by MTT assay; type: functional, cell-based; conditions: SW-620
[19] = tested on: SW-620; assay: Reduction in P-gp expression in paclitaxel-resistant human SW620/AD300 cells measured after 72 hrs by Western blotting analysis; type: functional, cell-based
[20] = Reversal of resistance to paclitaxel-induced cytotoxicity in human SW620/AD300 cells assessed as reduction in paclitaxel IC50 at 1 uM pre-incubated for 4 hrs followed by paclitaxel addition and measured after 72 hrs by MTT assay; type: functional, cell-based; conditions: SW-620

Row | Structure (SMILES) | Paclitaxel IC50 in presence of compound at 2 uM [1] | other results
1 | COc1cc2ncnc(-c3c(-c4ccc(-c5ccccc5)cc4)[nH]c4ccccc34)c2cc1OCCCN1CCOCC1 | 20 nM | 
2 | COc1cc2ncnc(-c3c(-c4ccc(C(C)C)cc4)[nH]c4ccccc34)c2cc1OCCCN1CCOCC1 | 300 nM | 
3 | COc1cc2ncnc(-c3c(-c4ccccc4)n(C)c4ccccc34)c2cc1OCCCN1CCOCC1 | 100 nM | 
4 | COc1cc2ncnc(-c3c(-c4ccccc4)n(Cc4ccc(Cl)cc4)c4ccccc34)c2cc1OCCCN1CCOCC1 | 7 nM | 
5 | COc1cc2ncnc(-c3c(-c4ccccc4)n(Cc4cccc(Cl)c4)c4ccccc34)c2cc1OCCCN1CCOCC1 | 20 nM | 
6 | COc1cc2ncnc(-c3c(-c4ccc(Cl)cc4)[nH]c4ccccc34)c2cc1OCCCN1CCOCC1 | 20 nM | 
7 | CCn1c(-c2ccccc2)c(-c2ncnc3ccc(Br)cc23)c2ccccc21 | 2200 nM | 
8 | CCc1ccc(-c2[nH]c3ccccc3c2-c2ncnc3cc(OC)c(OCCCN4CCOCC4)cc23)cc1 | 70 nM | 
9 | CCn1c(-c2ccccc2)c(-c2nc(-c3ccccc3)nc3ccccc23)c2ccccc21 | 1200 nM | 
10 | COc1cc2ncnc(-c3c(-c4ccccc4)n(Cc4cccc(Br)c4)c4ccccc34)c2cc1OCCCN1CCOCC1 | 20 nM | 
11 | COc1cc2ncnc(-c3c(-c4cccc(Cl)c4)[nH]c4ccccc34)c2cc1OCCCN1CCOCC1 | 200 nM | 
12 | COc1cc2ncnc(-c3c(-c4ccc(C)cc4)[nH]c4ccccc34)c2cc1OCCCN1CCOCC1 | 300 nM | 
13 | COc1cc2ncnc(-c3c(CCc4ccccc4)[nH]c4ccccc34)c2cc1OCCCN1CCOCC1 | 200 nM | 
14 | COc1cc2ncnc(-c3cn(Cc4ccccc4)c4ccccc34)c2cc1OCCCN1CCOCC1 | 50 nM | 
15 | COc1cc2ncnc(-c3c(-c4cccc(C)c4)[nH]c4ccccc34)c2cc1OCCCN1CCOCC1 | 400 nM | 
16 | C#CCn1c(-c2ccccc2)c(-c2ncnc3cc(OC)c(OCCCN4CCOCC4)cc23)c2ccccc21 | 2200 nM | 
17 | COc1cc2ncnc(-c3c(-c4ccc5ccccc5c4)[nH]c4ccccc34)c2cc1OCCCN1CCOCC1 | 40 nM | 
18 | CCn1cc(-c2ncnc3cc(OC)c(OCCCN4CCOCC4)cc23)c2ccccc21 | 300 nM | 
19 | COc1ccc(CCN(C)CCCC(C#N)(c2ccc(OC)c(OC)c2)C(C)C)cc1OC (configuration not stated) |  | Activity [2]: inactive; Activity [3]: Dose-Dependent Effect; IC50 [4]: 20.6 µM
20 | COc1cc2ncnc(-c3cn(Cc4cccc(C)c4)c4ccccc34)c2cc1OCCCN1CCOCC1 | 30 nM | 
21 | C=CCn1c(-c2ccccc2)c(-c2ncnc3cc(OC)c(OCCCN4CCOCC4)cc23)c2ccccc21 | 2300 nM | 
22 | COc1ccc2c(c1)c(-c1ncnc3cc(OC)c(OCCCN4CCOCC4)cc13)cn2Cc1ccccc1 | 200 nM | 
23 | COc1cc2ncnc(-c3cn(Cc4ccccc4Cl)c4ccccc34)c2cc1OCCCN1CCOCC1 | 20 nM | 

Row | Structure (SMILES) | Paclitaxel IC50 in presence of compound at 2 uM [1] | other results
24 | COc1cc2ncnc(-c3c(-c4ccccc4F)[nH]c4ccccc34)c2cc1OCCCN1CCOCC1 | 500 nM | 
25 | CCn1c(-c2ccccc2)c(-c2ncnc3cc(OC)c(OC)cc23)c2ccccc21 | 1600 nM | 
26 | COc1cc2ncnc(-c3c(Cc4ccccc4)[nH]c4ccccc34)c2cc1OCCCN1CCOCC1 | 2000 nM | 
27 | COc1cc2c(c(OC)c1OC)-c1ccc(OC)c(=O)cc1[C@@H](NC(C)=O)CC2 [COLCHICINE] |  | IC50 [5]: 801 µM; IC50 [6]: 62.5 µM
28 | COc1cc2ncnc(-c3c(-c4cccc(F)c4)[nH]c4ccccc34)c2cc1OCCCN1CCOCC1 | 800 nM | 
29 | COc1ccc2c(-c3ncnc4cc(OC)c(OCCCN5CCOCC5)cc34)cn(Cc3ccccc3)c2c1 | 100 nM | 
30 | CCCCc1ccc(-c2[nH]c3ccccc3c2-c2ncnc3cc(OC)c(OCCCN4CCOCC4)cc23)cc1 | 100 nM | 
31 | COc1cc2ncnc(-c3c(-c4ccccc4)n(CCCc4ccccc4)c4ccccc34)c2cc1OCCCN1CCOCC1 | 6 nM | 
32 | COc1cc2ncnc(-c3c(-c4ccc(F)cc4)[nH]c4ccccc34)c2cc1OCCCN1CCOCC1 | 300 nM | 
33 | COc1cc2ncnc(-c3c(-c4ccc(C(F)(F)F)cc4)[nH]c4ccccc34)c2cc1OCCCN1CCOCC1 | 700 nM | 
34 | COc1cc2ncnc(-c3cn(Cc4ccc(C#N)cc4)c4ccccc34)c2cc1OCCCN1CCOCC1 | 200 nM | 
35 | CCn1c(-c2ccccc2)c(-c2ncnc3cc(OCCOC)c(OCCOC)cc23)c2ccccc21 | 800 nM | 
36 | CCn1c(-c2ccccc2)c(-c2ncnc3cc(OC)c(OCCCN4CCOCC4)cc23)c2ccccc21 | 700 nM | IC50 [7]: 1.3 nM
37 | COc1cc2ncnc(-c3c(-c4ccccc4)n(Cc4cccc(C(F)(F)F)c4)c4ccccc34)c2cc1OCCCN1CCOCC1 | 20 nM | 
38 | COc1cc2ncnc(-c3c(-c4ccccc4)n(Cc4ccccc4Br)c4ccccc34)c2cc1OCCCN1CCOCC1 |  | Activity [2]: inactive; Activity [8]: Non-Toxic; Activity [9]: Non-Toxic; IC50 [10]: 4.1 µM; Activity [11]: Dose-Dependent Effect; Activity [12]: Active; Activity [13]: Dose-Dependent Effect; IC50 [14]: 100 nM; IC50 [15]: 5.1 µM; Activity ([15]; human, 1 h, time 60 min): Dose-Dependent Effect; Activity [3]: Dose-Dependent Effect; IC50 [16]: 26.5 µM; Activity [17]: inactive; IC50 [18]: 17.2 µM; Activity [19]: inactive; IC50 [20]: 20 nM; IC50 [4]: 6.2 µM
39 | CCCCn1cc(-c2ncnc3cc(OC)c(OCCCN4CCOCC4)cc23)c2ccccc21 | 400 nM | 
40 | COc1cc2ncnc(-c3cn(Cc4ccccc4)c4cccc(OC)c34)c2cc1OCCCN1CCOCC1 | 1000 nM | 
41 | COc1cc2ncnc(-c3c(-c4cccc([N+](=O)[O-])c4)[nH]c4ccccc34)c2cc1OCCCN1CCOCC1 | 600 nM | 
42 | CC(=O)O[C@H]1C(=O)[C@@]2(C)[C@H]([C@H](OC(=O)c3ccccc3)[C@]3(O)C[C@H](OC(=O)[C@H](O)[C@@H](NC(=O)c4ccccc4)c4ccccc4)C(C)=C1C3(C)C)[C@]1(OC(C)=O)CO[C@@H]1C[C@@H]2O [PACLITAXEL] |  | IC50 [5]: 36.4 µM; IC50 [6]: 2.3 µM
43 | COc1cc2ncnc(-c3c(-c4ccc(Br)cc4)[nH]c4ccccc34)c2cc1OCCCN1CCOCC1 | 200 nM | 
44 | COc1cc2ncnc(-c3c(-c4ccccc4)[nH]c4ccccc34)c2cc1OCCCN1CCOCC1 | 800 nM | 
45 | COc1cc2ncnc(-c3c(-c4cccc(Br)c4)[nH]c4ccccc34)c2cc1OCCCN1CCOCC1 | 3000 nM | 
46 | CCn1c(-c2ccccc2)c(-c2ncnc3ccccc23)c2ccccc21 | 2200 nM | 
